Results published in ChEMBL document CHEMBL1145343, “Inhibition of kinesin motor proteins by adociasulfate-2” (J Med Chem, 2006).

Experiments:
[1] = target: T1, Kinesin-like protein KIF11 (Homo sapiens, UniProt P52732); assay: Inhibition of kinesin ATPase activity by enzyme-linked inorganic phosphate detection assay without preincubation
T1 sequence (P52732 whole entry): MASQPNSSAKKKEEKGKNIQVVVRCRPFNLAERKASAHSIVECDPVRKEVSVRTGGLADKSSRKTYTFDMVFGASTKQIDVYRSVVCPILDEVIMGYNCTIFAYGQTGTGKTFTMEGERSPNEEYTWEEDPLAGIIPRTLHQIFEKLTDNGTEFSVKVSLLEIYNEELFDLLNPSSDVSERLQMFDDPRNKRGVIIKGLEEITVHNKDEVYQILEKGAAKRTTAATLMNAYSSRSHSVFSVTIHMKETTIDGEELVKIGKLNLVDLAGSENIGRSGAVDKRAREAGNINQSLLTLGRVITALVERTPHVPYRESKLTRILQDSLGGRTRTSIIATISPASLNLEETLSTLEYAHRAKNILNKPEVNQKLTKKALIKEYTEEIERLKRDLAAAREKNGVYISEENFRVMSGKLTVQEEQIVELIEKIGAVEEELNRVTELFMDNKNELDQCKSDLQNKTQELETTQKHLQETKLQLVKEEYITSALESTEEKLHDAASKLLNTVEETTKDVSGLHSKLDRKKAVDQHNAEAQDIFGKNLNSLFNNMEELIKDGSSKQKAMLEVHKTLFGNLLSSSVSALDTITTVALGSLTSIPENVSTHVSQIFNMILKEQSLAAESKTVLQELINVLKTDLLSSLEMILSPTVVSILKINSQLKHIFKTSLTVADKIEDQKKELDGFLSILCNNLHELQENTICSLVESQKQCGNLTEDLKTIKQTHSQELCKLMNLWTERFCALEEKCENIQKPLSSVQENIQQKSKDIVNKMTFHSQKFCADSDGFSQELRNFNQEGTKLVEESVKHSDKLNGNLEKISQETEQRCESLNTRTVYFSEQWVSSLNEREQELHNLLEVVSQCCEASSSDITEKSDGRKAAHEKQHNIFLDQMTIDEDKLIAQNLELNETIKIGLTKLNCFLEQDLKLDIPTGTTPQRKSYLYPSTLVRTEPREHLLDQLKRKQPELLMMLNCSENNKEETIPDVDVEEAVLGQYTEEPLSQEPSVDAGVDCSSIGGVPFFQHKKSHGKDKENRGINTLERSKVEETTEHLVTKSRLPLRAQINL

[2] = target: T1, Kinesin-like protein KIF11; assay: Inhibition of kinesin ATPase activity by enzyme-linked inorganic phosphate detection assay with 5 mins pre-incubation

Question: For `CC1(C)CCC[C@]2(C)O[C@H]3CC[C@@]4(C)[C@@H](CC[C@]5(C)[C@@H]4CC[C@]4(C)c6c(OS(=O)(=O)O)ccc(OS(=O)(=O)O)c6C[C@@H]54)[C@]3(C)CC[C@@H]12` [ADOCIASULFATE-2], which IC50 [1] is on record?
Answer: 13.9 µM

Question: What about the IC50 [2] of the same compound?
Answer: 7.3 µM
